Data reported in US11555012B2 (Nimbus Artemis, Inc., priority 2018, dated 2023).

What was measured:
ACL [1] = target: T1, ACL (Homo sapiens (Human), UniProt P53396); test: ADP-Glo Assay
Target sequence in this assay (P53396 other isoform, or with tags, fused parts or gaps isoform P53396-2): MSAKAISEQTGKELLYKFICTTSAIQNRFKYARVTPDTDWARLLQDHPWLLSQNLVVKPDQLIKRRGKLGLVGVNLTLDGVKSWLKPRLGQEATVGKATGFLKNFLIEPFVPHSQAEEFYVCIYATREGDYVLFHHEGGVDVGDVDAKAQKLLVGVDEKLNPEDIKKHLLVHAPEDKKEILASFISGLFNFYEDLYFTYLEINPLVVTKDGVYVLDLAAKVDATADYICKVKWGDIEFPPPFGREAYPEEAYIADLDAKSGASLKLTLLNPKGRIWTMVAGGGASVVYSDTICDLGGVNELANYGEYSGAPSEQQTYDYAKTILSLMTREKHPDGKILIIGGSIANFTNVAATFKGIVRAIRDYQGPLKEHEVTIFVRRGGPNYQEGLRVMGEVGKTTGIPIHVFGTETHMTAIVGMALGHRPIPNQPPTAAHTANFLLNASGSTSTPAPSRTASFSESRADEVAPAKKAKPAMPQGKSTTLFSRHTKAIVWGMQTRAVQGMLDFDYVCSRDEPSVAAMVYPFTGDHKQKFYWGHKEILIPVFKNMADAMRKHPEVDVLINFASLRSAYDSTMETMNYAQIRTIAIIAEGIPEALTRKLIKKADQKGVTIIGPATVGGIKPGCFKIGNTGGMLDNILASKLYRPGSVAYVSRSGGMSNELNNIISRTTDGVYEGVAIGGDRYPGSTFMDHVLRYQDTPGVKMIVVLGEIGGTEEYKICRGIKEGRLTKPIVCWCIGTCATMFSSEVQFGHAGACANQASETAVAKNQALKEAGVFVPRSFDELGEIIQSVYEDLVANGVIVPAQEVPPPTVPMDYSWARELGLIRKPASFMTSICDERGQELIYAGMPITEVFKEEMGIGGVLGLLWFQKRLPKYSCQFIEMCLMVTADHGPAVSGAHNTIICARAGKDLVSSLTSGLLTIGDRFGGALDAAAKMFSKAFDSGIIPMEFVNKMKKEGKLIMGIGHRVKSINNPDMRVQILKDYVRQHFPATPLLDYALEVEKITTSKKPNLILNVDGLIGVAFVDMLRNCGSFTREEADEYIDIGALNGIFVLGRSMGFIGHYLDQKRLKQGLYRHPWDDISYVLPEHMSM

ACL [2] = target: T1, ACL; test: ACLY-MDH Coupled Assay
Target sequence in this assay (P53396 whole entry, species assumed): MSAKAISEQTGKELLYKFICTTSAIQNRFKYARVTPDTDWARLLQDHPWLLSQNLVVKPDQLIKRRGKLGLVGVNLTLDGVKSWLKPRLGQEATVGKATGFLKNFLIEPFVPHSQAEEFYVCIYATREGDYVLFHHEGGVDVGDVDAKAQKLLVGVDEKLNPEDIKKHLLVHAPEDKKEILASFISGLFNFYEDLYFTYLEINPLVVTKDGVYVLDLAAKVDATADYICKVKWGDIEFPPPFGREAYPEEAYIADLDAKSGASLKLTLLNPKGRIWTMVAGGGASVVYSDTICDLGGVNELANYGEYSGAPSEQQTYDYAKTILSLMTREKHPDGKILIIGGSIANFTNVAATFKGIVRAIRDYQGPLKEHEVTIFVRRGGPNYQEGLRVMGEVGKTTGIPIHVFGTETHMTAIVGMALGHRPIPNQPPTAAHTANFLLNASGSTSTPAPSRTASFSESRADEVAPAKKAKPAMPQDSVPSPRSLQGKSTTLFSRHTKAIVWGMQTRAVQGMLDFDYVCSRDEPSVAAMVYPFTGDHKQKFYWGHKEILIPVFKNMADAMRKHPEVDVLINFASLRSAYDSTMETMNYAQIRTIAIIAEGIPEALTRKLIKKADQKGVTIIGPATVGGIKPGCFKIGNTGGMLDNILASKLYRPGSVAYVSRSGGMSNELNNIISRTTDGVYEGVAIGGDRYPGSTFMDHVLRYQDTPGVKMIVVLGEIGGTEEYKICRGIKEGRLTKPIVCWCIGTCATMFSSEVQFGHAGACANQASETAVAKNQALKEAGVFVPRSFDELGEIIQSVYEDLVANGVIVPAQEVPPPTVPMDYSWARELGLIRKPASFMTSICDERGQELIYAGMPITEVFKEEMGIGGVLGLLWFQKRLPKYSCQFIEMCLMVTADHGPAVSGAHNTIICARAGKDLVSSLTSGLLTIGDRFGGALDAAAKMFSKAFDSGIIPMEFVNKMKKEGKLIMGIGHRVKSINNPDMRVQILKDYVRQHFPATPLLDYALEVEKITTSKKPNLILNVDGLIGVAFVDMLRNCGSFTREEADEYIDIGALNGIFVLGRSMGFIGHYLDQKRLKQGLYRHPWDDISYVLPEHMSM
Description: Compounds of the present invention were evaluated in an ACLY Coupled Assay.
The assay protocol for the Coupled Assay (below) was followed:
b) Add 1 μL cpds to 96 assay plate, Test cpd conc: 100/30/10 μM top dose, 3 folds dilution, 10+0+control (control: buffer without ACL+DMSO) points, 1000 rpm for 1 min, incubation at 25° C. for 60 min

[3] = read-out: ACL-ADP-Glo (IC50), 3 nM ACL, 15 μM ATP, 3 μM CoA, 300 μM Citrate

| Structure (SMILES) | IC50 (ACL [1]) [nM] | IC50 (ACL [2]) [nM] | IC50 (ACL [1]; [3]) [nM] | IC50 (ACL [2]; read-out: ACL-MDH Coupled Assay (IC50), 8 nM ACL, 60 μM CoA Na2, 85 μM Citrate, 250 μM ATP, 250 μM NADH) [nM] |
| --- | --- | --- | --- | --- |
| COc1cc(Br)ccc1NS(=O)(=O)c1cc(Cl)cc(Cl)c1O [I-11, N-(4-bromo-2-methoxyphenyl)-3,5-dichloro-2-hydroxybenzenesulfonamide] | 500 to 20000 | 500 to 30000 | – | – |
| O=C(O)c1ccc(F)c(NS(=O)(=O)c2cc(Cl)cc(Cl)c2O)c1 [I-12, 3-((3,5-dichloro-2-hydroxyphenyl)sulfonamido)-4-fluorobenzoic Acid] | 500 to 20000 | 500 to 30000 | – | – |
| COc1ccc(-c2ccccc2)cc1NS(=O)(=O)c1cccc(-c2nn[nH]n2)c1 [I-19, N-(4-methoxy-[1,1′-biphenyl]-3-yl)-3-(2H-tetrazol-5-yl)benzenesulfonamide] | 500 to 20000 | 500 to 30000 | – | – |
| O=S(=O)(Nc1cc(-c2nn[nH]n2)ccc1F)c1cc(Cl)cc(Cl)c1O [I-24, 3,5-dichloro-N-[2-fluoro-5-(2H-1,2,3,4-tetrazol-5-yl)phenyl]-2-hydroxybenzene-1-sulfonamide] | 500 to 20000 | 500 to 30000 | – | – |
| O=S(=O)(Nc1cc(-c2ccccc2)ccc1O)c1cc(Cl)cc(Cl)c1O [I-28, 3,5-dichloro-2-hydroxy-N-(2-hydroxy-5-phenylphenyl) benzene-1-sulfonamide] | 500 to 20000 | 50 to 500 | – | – |
| N#Cc1cc(Cl)cc(S(=O)(=O)Nc2cc(-c3ccccc3)ccc2F)c1O [I-29, 5-chloro-3-cyano-N-(2-fluoro-5-phenylphenyl)-2-hydroxybenzene-1-sulfonamide] | 500 to 20000 | 500 to 30000 | – | – |
| O=S(=O)(Nc1cc(-c2ccccc2)ccn1)c1cc(Cl)cc(Br)c1O [I-32] | 500 to 20000 | 500 to 30000 | – | – |
| O=C(O)COc1c(Br)cc(Cl)cc1S(=O)(=O)Nc1cc(-c2ccccc2)ccc1F [I-46, 2-(2-bromo-4-chloro-6-(N-(4-fluoro-[1,1′-biphenyl]-3-yl)sulfamoyl)phenoxy)acetic Acid] | 500 to 20000 | 500 to 30000 | – | – |
| COC(=O)c1cc(Cl)c(OC)c(S(=O)(=O)Nc2cc(-c3ccccc3)ccc2F)c1 [I-49, Methyl 3-chloro-5-(N-(4-fluoro-[1,1′-biphenyl]-3-yl)sulfamoyl)-4-methoxybenzoate] | 500 to 20000 | 500 to 30000 | – | – |
| CCC(=O)Oc1c(Cl)cc(Cl)cc1S(=O)(=O)Nc1cc(-c2ccccc2)ccc1F [I-50, 2,4-dichloro-6-(N-(4-fluoro-[1,1′-biphenyl]-3-yl)sulfamoyl)phenyl propionate] | 500 to 20000 | 500 to 30000 | – | – |
| Nc1ccc(-c2ccccc2)cc1NS(=O)(=O)c1cc(Cl)cc(Br)c1O [I-53, N-(2-amino-5-phenylphenyl)-3-bromo-5-chloro-2-hydroxybenzene-1-sulfonamide] | 500 to 20000 | 500 to 30000 | – | – |
| COc1ccc(-c2ccccc2)cc1NS(=O)(=O)c1cc(C(N)=O)cc(Cl)c1O [I-55, 3-chloro-4-hydroxy-5-[(2-methoxy-5-phenylphenyl)sulfamoyl]benzamide] | 50 to 500 | 500 to 30000 | – | – |
| COc1ccc(-c2ccccc2)cc1NS(=O)(=O)c1cc(C(=O)N(C)C)cc(Cl)c1O [I-56, 3-chloro-4-hydroxy-5-[(2-methoxy-5-phenylphenyl)sulfamoyl]-N,N-dimethylbenzamide] | 50 to 500 | 50 to 500 | – | – |
| COc1ccc(-c2ccccc2)cc1NS(=O)(=O)c1cc(C#N)cc(Cl)c1O [I-58, 3-chloro-5-cyano-2-hydroxy-N-(2-methoxy-5-phenylphenyl)benzene-1-sulfonamide] | 50 to 500 | 50 to 500 | – | – |
| COc1c(Cl)cc(C(=O)O)cc1S(=O)(=O)Nc1cc(-c2ccccc2)c(F)cc1F [I-62, 3-chloro-5-[(2,4-difluoro-5-phenylphenyl)sulfamoyl]-4-methoxybenzoic Acid] | 500 to 20000 | 500 to 30000 | – | – |
| COc1ccc(-c2ccccc2)cc1NS(=O)(=O)c1cc(C(=O)NCCN)cc(Cl)c1O [I-64, N-(2-aminoethyl)-3-chloro-4-hydroxy-5-[(2-methoxy-5-phenylphenyl)sulfamoyl]benzamide] | 500 to 20000 | 500 to 30000 | – | – |
| CNC(=O)c1cc(Cl)c(O)c(S(=O)(=O)Nc2cc(-c3ccccc3)ccc2OC)c1 [I-66, 3-chloro-4-hydroxy-5-[(2-methoxy-5-phenylphenyl)sulfamoyl]-N-methylbenzamide] | 50 to 500 | 500 to 30000 | – | – |
| O=S(=O)(c1cc(Cl)cc(Cl)c1O)N(Cc1ccccc1)Cc1cccc(-c2ccccc2)c1 [I-67, N-([1,1′-biphenyl]-3-ylmethyl)-N-benzyl-3,5-dichloro-2-hydroxybenzenesulfonamide] | 500 to 20000 | 500 to 30000 | – | – |
| COC(=O)c1cc(Cl)c(O)c(S(=O)(=O)Nc2ccc(F)cc2F)c1 [I-74, Methyl 3-chloro-5-(N-(2,4-difluorophenyl)sulfamoyl)-4-hydroxybenzoate] | 50 to 500 | 500 to 30000 | – | – |
| CNC(=O)c1cc(Cl)c(O)c(S(=O)(=O)Nc2cc(-c3ccccc3)c(F)cc2F)c1 [I-92, 3-chloro-5-[(2,4-difluoro-5-phenylphenyl)sulfamoyl]-4-hydroxy-N-methylbenzamide] | 50 to 500 | 50 to 500 | – | – |
| CC(C)NC(=O)c1cc(Cl)c(O)c(S(=O)(=O)Nc2cc(-c3ccccc3)c(F)cc2F)c1 [I-93] | – | 50 to 500 | < 50 | – |
| COC(=O)Cc1cc(Cl)c(O)c(S(=O)(=O)Nc2cc(-c3ccccc3)ccc2OC)c1 [I-94, Methyl 2-[3-chloro-4-hydroxy-5-[(2-methoxy-5-phenylphenyl)sulfamoyl]phenyl]acetate] | 500 to 20000 | 500 to 30000 | – | – |
| O=C(O)c1cc(Cl)c(O)c(S(=O)(=O)Nc2cc(-c3ccccc3)c(F)cc2F)c1 [I-95, 3-chloro-5-(N-(4,6-difluoro-[1,1′-biphenyl]-3-yl)sulfamoyl)-4-hydroxybenzoic Acid] | 50 to 500 | 50 to 500 | – | – |
| O=C(c1cc(Cl)c(O)c(S(=O)(=O)Nc2cc(-c3ccccc3)c(F)cc2F)c1)N1CCOCC1 [I-99, 3-chloro-N-(4,6-difluoro-[1,1′-biphenyl]-3-yl)-2-hydroxy-5-(morpholine-4-carbonyl)benzenesulfonamide] | 500 to 20000 | 500 to 30000 | – | – |
| O=C(c1cc(Cl)c(O)c(S(=O)(=O)Nc2cc(-c3ccccc3)c(F)cc2F)c1)N1Cc2ccccc2C1 [I-100, 3-chloro-N-(4,6-difluoro-[1,1′-biphenyl]-3-yl)-2-hydroxy-5-(isoindoline-2-carbonyl)benzenesulfonamide] | 50 to 500 | 500 to 30000 | – | – |
| O=C(c1cc(Cl)c(O)c(S(=O)(=O)Nc2cc(-c3ccccc3)c(F)cc2F)c1)N1CCCCC1 [I-102, 3-chloro-N-(2,4-difluoro-5-phenylphenyl)-2-hydroxy-5-[(piperidin-1-yl)carbonyl]benzene-1-sulfonamide] | 50 to 500 | 500 to 30000 | – | – |
| CO[C@H]1CCN(C(=O)c2cc(Cl)c(O)c(S(=O)(=O)Nc3cc(-c4ccccc4)c(F)cc3F)c2)C1 [I-103, 3-chloro-N-(2,4-difluoro-5-phenylphenyl)-2-hydroxy-5-[[(3S)-3-methoxypyrrolidin-1-yl]carbonyl]benzene-1-sulfonamide] | – | – | < 50 | < 50 |
| CO[C@@H]1CCN(C(=O)c2cc(Cl)c(O)c(S(=O)(=O)Nc3cc(-c4ccccc4)c(F)cc3F)c2)C1 [I-104, 3-chloro-N-(2,4-difluoro-5-phenylphenyl)-2-hydroxy-5-[[(3R)-3-methoxypyrrolidin-1-yl]carbonyl]benzene-1-sulfonamide] | 50 to 500 | 500 to 30000 | – | – |
